Marks after values point to notes of the source that are not given here.
Assays:
lung cancer = lung cancer patients; cited from earlier work
C-reactive protein (CRP) [1] = experiment: CRP concentration in plasma and ascites (Rat High-Sensitive CRP ELISA), rat AH model; format: in vivo, female Wistar rats; details: Experiment 3; for Ascites [CRP] Mean: ascites fluid; for Ascites CRP ng/rat Mean: concentration times ascites volume; for Plasma [CRP] Mean: AH-inoculated
Experimental: (§1) Following the method of Busquets et al., female Wistar rats were inoculated (Day 0) intraperitoneally (ip) with 2×10^7 cells/animal of Yoshida AH-130 ascites hepatoma (AH) cells. Control animals were inoculated with an equivalent amount of sterile saline solution. […] The roxithromycin dosing solution was 2 mg/mL in 20 mM citrate, pH of 5.5, and 4.5% mannitol in water. Serum samples were collected prior to sacrifice on D5 and assayed for serum albumin concentration. After determination of gastrocnemius muscle wet weight, some gastrocnemius samples were lysed and determinations made of C-reactive protein (CRP, using Quantikine Rat CRP Immunoassay Kit) and total protein. A commercial immunoassay kit (Quantikine Rat VEGF Immunoassay, R & D Systems PN RRV00) was used to determine Vascular Endothelial Growth Factor (VEGF) concentration in plasma and ascites. Similarly, CRP concentration in plasma and ascites was determined using a commercial kit (Rat High-Sensitive CRP ELISA Method, Kamiya Biochemical PN KT099). In Experiment 3, one treatment group received 40 mg/kg (ip) roxithromycin, and a second treatment group received 40 mg/kg (po). Ascites volumes, plasma CRP and VEGF concentrations, and ascites CRP and VEGF concentrations were determined.

[2] = tested on: Yoshida AH-130 ascites hepatoma (AH) cells; experiment: AH cell count and viability in recovered ascites fluid, rat AH model; format: in vivo, female Wistar rats
Experimental: Following the method of Busquets et al., female Wistar rats were inoculated (Day 0) intraperitoneally (ip) with 2×10^7 cells/animal of Yoshida AH-130 ascites hepatoma (AH) cells. Control animals were inoculated with an equivalent amount of sterile saline solution. […] The roxithromycin dosing solution was 2 mg/mL in 20 mM citrate, pH of 5.5, and 4.5% mannitol in water.
For the cell count measurements in ascites, the cells were counted directly from the ascites collected at necropsy from N 4 animals in […]. A […] aliquot was taken from each sample and diluted 1:500 with trypan blue. The sample was then placed onto a hemacytometer and both sides counted to determine the total number of viable and non-viable AH cells.
In Experiment 2, the single treatment group received 50 mg/kg roxithromycin (ip). Ascites volumes, serum albumin concentrations, and CRP levels in dissected gastrocnemius muscle were determined. AH cell counts and cell viability (%) were determined in recovered ascites fluid.

[3] = tested on: Yoshida AH-130 ascites hepatoma (AH) cells; experiment: Ascites volume in rat AH (Yoshida AH-130 ascites hepatoma) model; format: in vivo, female Wistar rats; details: for Ascites (mL) Mean: AH-inoculated rats
Experimental: Following the method of Busquets et al., female Wistar rats were inoculated (Day 0) intraperitoneally (ip) with 2×10^7 cells/animal of Yoshida AH-130 ascites hepatoma (AH) cells. Control animals were inoculated with an equivalent amount of sterile saline solution. […] The roxithromycin dosing solution was 2 mg/mL in 20 mM citrate, pH of 5.5, and 4.5% mannitol in water. The animals were sacrificed on Day 5. Upon sacrifice ascites fluid was withdrawn by syringe and the volume determined. Three different experiments were performed. In each experiment one control group received an ascites hepatoma (AH) inoculation with vehicle treatment, and a second control group received saline inoculation with vehicle treatment. In Experiment 1, the single treatment group received 5 mg/kg roxithromycin (ip). Ascites volumes were determined. In Experiment 2, the single treatment group received 50 mg/kg roxithromycin (ip). Ascites volumes, serum albumin concentrations, and CRP levels in dissected gastrocnemius muscle were determined. AH cell counts and cell viability (%) were determined in recovered ascites fluid. In Experiment 3, one treatment group received 40 mg/kg (ip) roxithromycin, and a second treatment group received 40 mg/kg (po). Ascites volumes, plasma CRP and VEGF concentrations, and ascites CRP and VEGF concentrations were determined.

C-reactive protein (CRP) [4] = experiment: C-reactive protein in gastrocnemius muscle lysate (Quantikine Rat CRP Immunoassay Kit), rat AH model; format: in vivo, female Wistar rats; details: Experiment 2, 50 mg/kg ip
Experimental: Following the method of Busquets et al., female Wistar rats were inoculated (Day 0) intraperitoneally (ip) with 2×10^7 cells/animal of Yoshida AH-130 ascites hepatoma (AH) cells. Control animals were inoculated with an equivalent amount of sterile saline solution. […] The roxithromycin dosing solution was 2 mg/mL in 20 mM citrate, pH of 5.5, and 4.5% mannitol in water. Serum samples were collected prior to sacrifice on D5 and assayed for serum albumin concentration. After determination of gastrocnemius muscle wet weight, some gastrocnemius samples were lysed and determinations made of C-reactive protein (CRP, using Quantikine Rat CRP Immunoassay Kit) and total protein. A commercial immunoassay kit (Quantikine Rat VEGF Immunoassay, R & D Systems PN RRV00) was used to determine Vascular Endothelial Growth Factor (VEGF) concentration in plasma and ascites. Similarly, CRP concentration in plasma and ascites was determined using a commercial kit (Rat High-Sensitive CRP ELISA Method, Kamiya Biochemical PN KT099). In Experiment 2, the single treatment group received 50 mg/kg roxithromycin (ip). Ascites volumes, serum albumin concentrations, and CRP levels in dissected gastrocnemius muscle were determined. AH cell counts and cell viability (%) were determined in recovered ascites fluid.

[5] = macrolide given to rats prior to carrageenan stimulation; cited from earlier work
[6] = tested on: Vascular Endothelial Growth Factor (VEGF); experiment: VEGF concentration in plasma and ascites (Quantikine Rat VEGF Immunoassay), rat AH model; format: in vivo, female Wistar rats; details: Experiment 3; for Ascites [VEGF] Mean: ascites fluid; for Ascites VEGF pg/rat Mean: concentration times ascites volume
Experimental: as §1

serum albumin = experiment: Serum albumin concentration, rat AH model; format: in vivo, female Wistar rats; details: Experiment 2; 50 mg/kg ip
Experimental: Following the method of Busquets et al., female Wistar rats were inoculated (Day 0) intraperitoneally (ip) with 2×10^7 cells/animal of Yoshida AH-130 ascites hepatoma (AH) cells. Control animals were inoculated with an equivalent amount of sterile saline solution. […] The roxithromycin dosing solution was 2 mg/mL in 20 mM citrate, pH of 5.5, and 4.5% mannitol in water. […] In Experiment 2, the single treatment group received 50 mg/kg roxithromycin (ip). Ascites volumes, serum albumin concentrations, and CRP levels in dissected gastrocnemius muscle were determined. AH cell counts and cell viability (%) were determined in recovered ascites fluid.

[7] = Experiment 2, ascites, AH-inoculated, 50 mg/kg ip, N = 4

For `CC[C@H]1OC(=O)[C@H](C)[C@@H](O[C@H]2C[C@@](C)(OC)[C@@H](O)[C@H](C)O2)[C@H](C)[C@@H](O[C@@H]2O[C@H](C)C[C@H](N(C)C)[C@H]2O)[C@](C)(OC)C[C@@H](C)C(=O)[C@H](C)[C@@H](O)[C@]1(C)O` [clarithromycin], the IL6 levels (lung cancer) is given as “reduced” and the Median survival time (lung cancer) is given as “significantly increased”.

With `CC[C@H]1OC(=O)[C@H](C)[C@@H](O[C@H]2C[C@@](C)(OC)[C@@H](O)[C@H](C)O2)[C@H](C)[C@@H](O[C@@H]2O[C@H](C)C[C@H](N(C)C)[C@H]2O)[C@](C)(O)C[C@@H](C)/C(=N\OCOCCOC)[C@H](C)[C@@H](O)[C@]1(C)O` [roxithromycin] the “Total CRP per rat in ascites versus vehicle control” value (C-reactive protein (CRP) [1]; 40 mg/kg given either orally or intraperitoneally) was “statistically significantly reduced”, the “Plasma CRP concentration versus vehicle-treated animals” value (C-reactive protein (CRP) [1]; 40 mg/kg ip) was “lowered plasma CRP concentration compared with the vehicle-treated animals, but the differences were not statistically significant” and the “Plasma CRP concentration versus vehicle-treated animals” value (C-reactive protein (CRP) [1]; 40 mg/kg oral) was “very significantly lowered”. The “Ascites [CRP] Mean” value (C-reactive protein (CRP) [1]; 40 mg/kg i.p. qd (Group 9)) was 230 ng/mL, the “Ascites [CRP] Mean” value (C-reactive protein (CRP) [1]; 40 mg/kg oral, bid (Group 10)) was 287 ng/mL and the “Ascites CRP ng/rat Mean” value (C-reactive protein (CRP) [1]; 40 mg/kg i.p. qd (Group 9)) was 530 ng/rat. The “Ascites CRP ng/rat Mean” value (C-reactive protein (CRP) [1]; 40 mg/kg oral, bid (Group 10)) was 730 ng/rat, the “Plasma [CRP] Mean” value (C-reactive protein (CRP) [1]; 40 mg/kg i.p. qd) was 709 µg/mL and the “Plasma [CRP] Mean” value (C-reactive protein (CRP) [1]; 40 mg/kg oral, bid) was 593 µg/mL. For the same compound, the “AH cell densities or cell counts versus vehicle control” value ([2]; Experiment 2, 50 mg/kg ip) was “did not reduce”, the “Viable Cells % Mean” value ([2]; Experiment 2, ascites AH cells, trypan blue, 50 mg/kg ip, N = 4) was 99% and the “Cells/mL × 10^6 Mean” value [2, 7] was 338 Cells/mL × 10^6. The “Total Cells # × 10^6 Mean” value [2, 7] was 2,077 × 10^6, the “Cytostatic or cytotoxic activity toward ascites hepatoma cells” value ([2]; rat AH model, conclusion from cell counts and viability) was “does not appear to be cytostatic or cytotoxic” and the “Accumulated ascites fluid versus vehicle control” value ([3]; Experiment 1, 5 mg/kg (ip), difference not statistically significant) was “lowered the accumulated ascites fluid”. For the same compound, the “Ascites (mL) Mean” value ([3]; Experiment 1, 5 mg/kg ip qd from Day 1, sacrifice Day 5) was 3.48** mL, the “Accumulated ascites volume versus vehicle control” value ([3]; Experiment 2, 50 mg/kg ip) was “very significantly reduced” and the “Ascites (mL) Mean” value ([3]; Experiment 2, 50 mg/kg ip qd, Day 5) was 2.92 mL. For the same compound, the “Accumulated ascites volume versus vehicle control” value ([3]; Experiment 3, 40 mg/kg given either po or ip) was “very significantly reduced”, the “Ascites (mL) Mean” value ([3]; Experiment 3, 40 mg/kg i.p. qd, Day 5) was 3.0 mL and the “Ascites (mL) Mean” value ([3]; Experiment 3, 40 mg/kg oral, bid, Day 5) was 3.7 mL. For the same compound, the “Muscle CRP levels versus AH-inoculated vehicle animals” value (C-reactive protein (CRP) [4]) was “did significantly reduce”, the “Muscle CRP Mean” value (C-reactive protein (CRP) [4]; gastrocnemius muscle, AH-inoculated rats) was 28.5 ng/mg total protein and the “Exudate accumulation in rat paws” value [5] was “limit exudate accumulation”. For the same compound, the “Ascites [VEGF] Mean” value ([6]; 40 mg/kg i.p. qd (Group 9)) was 4,590 pg/mL, the “Ascites [VEGF] Mean” value ([6]; 40 mg/kg oral, bid (Group 10)) was 4,040 pg/mL and the “Ascites VEGF pg/rat Mean” value ([6]; 40 mg/kg i.p. qd (Group 9)) was 10,200 pg/rat. The “Ascites VEGF pg/rat Mean” value ([6]; 40 mg/kg oral, bid (Group 10)) was 9,900 pg/rat, the “Plasma VEGF concentration” value ([6]; plasma, 40 mg/kg ip qd or oral bid) was “below the immunoassay method quantitation limit” and the “Influence on VEGF levels” value ([6]; rat AH model) was “does not influence VEGF levels”. For the same compound, the “Serum albumin levels versus AH-inoculated vehicle animals” value (serum albumin) was “did not significantly change”.

— US20090221518A1, “Compositions and Methods for Treatment of Exudative Serous Effusion” (Anaborex, Inc., priority 2007, published 2009)
